Several values for one entry are separate records, joined by “and”; a condition that tells them apart may be missing. Equal values may be shown once. Toxic doses and inconclusive results are not listed.
Test system: L1210 leukemia ip in BDF1 mice, survival T/C
Assay: NCI In Vivo Anticancer Drug Screen. Data for tumor model L1210 Leukemia (intraperitoneal) in B6D2F1 (BDF1) mice
Details: higher = longer survival
Summary of the method: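 Each compound was tested against a transplantable tumor grown in mice. The endpoint was survival, with treated animals benchmarked against vehicle controls as a simple ratio.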

[1] = endpoint: mean survival time, dose: 100.0 mg/kg/injection, schedule: Q01DX001 (ip), vehicle: saline
[2] = endpoint: mean survival time, dose: 200.0 mg/kg/injection, schedule: Q01DX001 (ip), vehicle: saline
[3] = endpoint: mean survival time, dose: 400.0 mg/kg/injection, schedule: Q01DX001 (ip), vehicle: saline
[4] = endpoint: mean survival time, dose: 100.0 mg/kg/injection, schedule: Q01DX009 (ip), vehicle: Klucel (hydroxypropylcellulose) (HPC)
[5] = endpoint: mean survival time, dose: 200.0 mg/kg/injection, schedule: Q01DX009 (ip), vehicle: Klucel (hydroxypropylcellulose) (HPC)
[6] = endpoint: mean survival time, dose: 400.0 mg/kg/injection, schedule: Q01DX009 (ip), vehicle: Klucel (hydroxypropylcellulose) (HPC)

COC(=O)Nc1nc2ccc(C(=O)c3cccs3)cc2[nH]1
T/C (endpoint: mean survival time, dose: 10.0 mg/kg/injection, schedule: Q01DX009 (ip), vehicle: saline with Tween-80): 102 % of control | T/C (endpoint: mean survival time, dose: 10.0 mg/kg/injection, schedule: Q04DX003 (ip), vehicle: Klucel (hydroxypropylcellulose) (HPC)): 98 % of control | T/C (endpoint: mean survival time, dose: 20.0 mg/kg/injection, schedule: Q01DX009 (ip), vehicle: saline with Tween-80): 118 % of control | T/C (endpoint: mean survival time, dose: 20.0 mg/kg/injection, schedule: Q04DX003 (ip), vehicle: Klucel (hydroxypropylcellulose) (HPC)): 101 % of control | T/C (endpoint: mean survival time, dose: 40.0 mg/kg/injection, schedule: Q04DX003 (ip), vehicle: Klucel (hydroxypropylcellulose) (HPC)): 107 % of control | T/C (endpoint: mean survival time, dose: 50.0 mg/kg/injection, schedule: Q04DX003 (ip), vehicle: Klucel (hydroxypropylcellulose) (HPC)): 108 % of control and 111 % of control | T/C (endpoint: mean survival time, dose: 50.0 mg/kg/injection, schedule: Q04DX003 (ip), vehicle: saline with Tween-80): 111 % of control | T/C (endpoint: mean survival time, dose: 70.0 mg/kg/injection, schedule: Q04DX003 (ip), vehicle: other): 157 % of control | T/C (endpoint: mean survival time, dose: 75.0 mg/kg/injection, schedule: Q04DX003 (ip), vehicle: Klucel (hydroxypropylcellulose) (HPC)): 111 % of control and 121 % of control | T/C (endpoint: mean survival time, dose: 75.0 mg/kg/injection, schedule: Q04DX003 (ip), vehicle: other): 117 % of control and 183 % of control and 210 % of control | T/C (endpoint: mean survival time, dose: 80.0 mg/kg/injection, schedule: Q04DX003 (ip), vehicle: Klucel (hydroxypropylcellulose) (HPC)): 94 % of control | T/C (endpoint: mean survival time, dose: 80.0 mg/kg/injection, schedule: Q04DX003 (ip), vehicle: other): 153 % of control | T/C (endpoint: mean survival time, dose: 100.0 mg/kg/injection, schedule: Q01DX009 (oral), vehicle: saline with Tween-80): 94 % of control | T/C (endpoint: mean survival time, dose: 100.0 mg/kg/injection, schedule: Q04DX003 (ip), vehicle: Klucel (hydroxypropylcellulose) (HPC)): 115 % of control | T/C (endpoint: mean survival time, dose: 100.0 mg/kg/injection, schedule: Q04DX003 (ip), vehicle: other): 114 % of control and 115 % of control and 89 % of control | T/C (endpoint: mean survival time, dose: 100.0 mg/kg/injection, schedule: Q04DX003 (ip), vehicle: saline with Tween-80): 155 % of control and 170 % of control | T/C (endpoint: mean survival time, dose: 150.0 mg/kg/injection, schedule: Q04DX003 (ip), vehicle: other): 104 % of control | T/C (endpoint: mean survival time, dose: 160.0 mg/kg/injection, schedule: Q04DX003 (ip), vehicle: Klucel (hydroxypropylcellulose) (HPC)): 113 % of control | T/C (endpoint: mean survival time, dose: 200.0 mg/kg/injection, schedule: Q01DX009 (oral), vehicle: saline with Tween-80): 96 % of control | T/C (endpoint: mean survival time, dose: 200.0 mg/kg/injection, schedule: Q04DX003 (oral), vehicle: saline with Tween-80): 104 % of control | T/C (endpoint: mean survival time, dose: 400.0 mg/kg/injection, schedule: Q01DX009 (oral), vehicle: saline with Tween-80): 100 % of control | T/C (endpoint: mean survival time, dose: 400.0 mg/kg/injection, schedule: Q04DX003 (oral), vehicle: saline with Tween-80): 97 % of control | T/C (endpoint: mean survival time, dose: 600.0 mg/kg/injection, schedule: Q04DX003 (oral), vehicle: saline with Tween-80): 104 % of control | T/C (endpoint: mean survival time, dose: 800.0 mg/kg/injection, schedule: Q04DX003 (oral), vehicle: saline with Tween-80): 89 % of control | T/C (endpoint: mean survival time, dose: 1600.0 mg/kg/injection, schedule: Q04DX003 (oral), vehicle: saline with Tween-80): 104 % of control | T/C (endpoint: median survival time, dose: 5.0 mg/kg/injection, schedule: Q01DX009 (ip), vehicle: other): 101 % of control | T/C (endpoint: median survival time, dose: 7.5 mg/kg/injection, schedule: Q03HX016 (ip), vehicle: other): 158 % of control | T/C (endpoint: median survival time, dose: 7.5 mg/kg/injection, schedule: Q03HX024 (ip), vehicle: other): 164 % of control | T/C (endpoint: median survival time, dose: 10.0 mg/kg/injection, schedule: Q01DX009 (ip), vehicle: other): 117 % of control and 120 % of control | T/C (endpoint: median survival time, dose: 10.0 mg/kg/injection, schedule: Q03HX016 (ip), vehicle: other): 158 % of control | T/C (endpoint: median survival time, dose: 15.0 mg/kg/injection, schedule: Q03HX008 (ip), vehicle: other): 177 % of control | T/C (endpoint: median survival time, dose: 15.0 mg/kg/injection, schedule: Q03HX024 (ip), vehicle: other): 88 % of control | T/C (endpoint: median survival time, dose: 20.0 mg/kg/injection, schedule: Q01DX005 (ip), vehicle: other): 151 % of control | T/C (endpoint: median survival time, dose: 20.0 mg/kg/injection, schedule: Q01DX009 (ip), vehicle: other): 121 % of control | T/C (endpoint: median survival time, dose: 20.0 mg/kg/injection, schedule: Q08HX009 (ip), vehicle: other): 119 % of control | T/C (endpoint: median survival time, dose: 30.0 mg/kg/injection, schedule: Q01DX005 (ip), vehicle: other): 153 % of control | T/C (endpoint: median survival time, dose: 30.0 mg/kg/injection, schedule: Q01DX009 (ip), vehicle: other): 157 % of control | T/C (endpoint: median survival time, dose: 35.0 mg/kg/injection, schedule: Q04DX003 (ip), vehicle: Klucel (hydroxypropylcellulose) (HPC)): 119 % of control | T/C (endpoint: median survival time, dose: 35.0 mg/kg/injection, schedule: Q04DX003 (ip), vehicle: other): 123 % of control | T/C (endpoint: median survival time, dose: 40.0 mg/kg/injection, schedule: Q04DX003 (ip), vehicle: other): 104 % of control | T/C (endpoint: median survival time, dose: 50.0 mg/kg/injection, schedule: Q01DX005 (ip), vehicle: other): 86 % of control | T/C (endpoint: median survival time, dose: 50.0 mg/kg/injection, schedule: Q01DX009 (ip), vehicle: other): 103 % of control | T/C (endpoint: median survival time, dose: 50.0 mg/kg/injection, schedule: Q04DX003 (ip), vehicle: Klucel (hydroxypropylcellulose) (HPC)): 119 % of control | T/C (endpoint: median survival time, dose: 70.0 mg/kg/injection, schedule: Q04DX003 (ip), vehicle: Klucel (hydroxypropylcellulose) (HPC)): 119 % of control | T/C (endpoint: median survival time, dose: 75.0 mg/kg/injection, schedule: Q04DX003 (oral), vehicle: other): 101 % of control | T/C (endpoint: median survival time, dose: 80.0 mg/kg/injection, schedule: Q01DX001 (ip), vehicle: other): 157 % of control | T/C (endpoint: median survival time, dose: 80.0 mg/kg/injection, schedule: Q08DX002 (ip), vehicle: other): 182 % of control | T/C (endpoint: median survival time, dose: 90.0 mg/kg/injection, schedule: Q04DX003 (ip), vehicle: other): 167 % of control | T/C (endpoint: median survival time, dose: 100.0 mg/kg/injection, schedule: Q01DX001 (ip), vehicle: other): 151 % of control | T/C (endpoint: median survival time, dose: 100.0 mg/kg/injection, schedule: Q01DX009 (oral), vehicle: other): 102 % of control | T/C (endpoint: median survival time, dose: 100.0 mg/kg/injection, schedule: Q04DX003 (iv), vehicle: other): 101 % of control | T/C (endpoint: median survival time, dose: 130.0 mg/kg/injection, schedule: Q01DX001 (ip), vehicle: other): 155 % of control | T/C (endpoint: median survival time, dose: 140.0 mg/kg/injection, schedule: Q08DX002 (ip), vehicle: other): 112 % of control | T/C (endpoint: median survival time, dose: 150.0 mg/kg/injection, schedule: Q04DX003 (oral), vehicle: other): 119 % of control | T/C (endpoint: median survival time, dose: 160.0 mg/kg/injection, schedule: Q08DX002 (ip), vehicle: other): 153 % of control | T/C (endpoint: median survival time, dose: 200.0 mg/kg/injection, schedule: Q01DX009 (oral), vehicle: other): 103 % of control | T/C (endpoint: median survival time, dose: 300.0 mg/kg/injection, schedule: Q01DX009 (oral), vehicle: other): 109 % of control | T/C (endpoint: median survival time, dose: 300.0 mg/kg/injection, schedule: Q04DX003 (oral), vehicle: other): 98 % of control | T/C (endpoint: median survival time, dose: 400.0 mg/kg/injection, schedule: Q01DX009 (oral), vehicle: other): 108 % of control | T/C (endpoint: median survival time, dose: 400.0 mg/kg/injection, schedule: Q04DX003 (oral), vehicle: other): 102 % of control | T/C (endpoint: median survival time, dose: 500.0 mg/kg/injection, schedule: Q04DX003 (oral), vehicle: other): 97 % of control | T/C (endpoint: median survival time, dose: 600.0 mg/kg/injection, schedule: Q04DX003 (oral), vehicle: other): 104 % of control

O=Cc1cc(Br)ccc1[N+](=O)[O-]
T/C [1]: 103 % of control | T/C [2]: 103 % of control | T/C [3]: 101 % of control

CCCCN(Cc1ccccc1)C(=O)Nc1ccccc1
T/C [4]: 97 % of control | T/C [5]: 111 % of control | T/C [6]: 100 % of control

CCN(CCOC(=O)Nc1ccc(F)cc1)c1ccccc1
T/C [4]: 98 % of control | T/C [5]: 98 % of control | T/C [6]: 110 % of control

Cc1cn(C2CCCO2)c(=O)[nH]c1=O (centres undefined)
T/C [1]: 106 % of control | T/C [2]: 101 % of control | T/C [3]: 95 % of control

Cc1cccc2c1ccc1cc(C(C)C)ccc12
T/C (endpoint: mean survival time, dose: 75.0 mg/kg/injection, schedule: Q01DX009 (ip), vehicle: Klucel (hydroxypropylcellulose) (HPC)): 106 % of control | T/C (endpoint: mean survival time, dose: 150.0 mg/kg/injection, schedule: Q01DX009 (ip), vehicle: Klucel (hydroxypropylcellulose) (HPC)): 105 % of control | T/C (endpoint: mean survival time, dose: 300.0 mg/kg/injection, schedule: Q01DX009 (ip), vehicle: Klucel (hydroxypropylcellulose) (HPC)): 98 % of control

ICc1cccc(CI)c1
T/C (endpoint: mean survival time, dose: 6.25 mg/kg/injection, schedule: Q01DX009 (ip), vehicle: carboxymethylcellulose (CMC)): 100 % of control | T/C (endpoint: mean survival time, dose: 6.25 mg/kg/injection, schedule: Q04DX003 (ip), vehicle: carboxymethylcellulose (CMC)): 111 % of control | T/C (endpoint: mean survival time, dose: 12.5 mg/kg/injection, schedule: Q01DX001 (ip), vehicle: other): 95 % of control | T/C (endpoint: mean survival time, dose: 12.5 mg/kg/injection, schedule: Q01DX009 (ip), vehicle: carboxymethylcellulose (CMC)): 94 % of control | T/C (endpoint: mean survival time, dose: 12.5 mg/kg/injection, schedule: Q04DX003 (ip), vehicle: carboxymethylcellulose (CMC)): 97 % of control | T/C (endpoint: mean survival time, dose: 25.0 mg/kg/injection, schedule: Q01DX001 (ip), vehicle: other): 95 % of control | T/C (endpoint: mean survival time, dose: 25.0 mg/kg/injection, schedule: Q04DX003 (ip), vehicle: carboxymethylcellulose (CMC)): 92 % of control

Source: PubChem BioAssay AID248 (DTP/NCI, 2004)
